Among the data in patent US11845752B2, “Substituted imidazo[1,5-a]pyrazines for the treatment of hepatitis B” (ALIGOS THERAPEUTICS, INC., priority 2020, dated 2023) are EC50 values, retold here.

The assay has as its system HBV. Put plainly: HBV-DNA antiviral assay using HepG2.117 cells (intracellular HBV DNA by qPCR). As to conditions: HBV DNA inhibition, 3 days incubation. The assay is classed as cell-based, HBV genotype D. The method in brief:
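Read-outs: cell-lysate HBV DNA copies by qPCR (interpolated from gBlock standard) and parallel cellular ATP luminescence for CC50, both normalised to 2% DMSO controls and fitted by non-linear regression. HepG2.117 Tet-off genotype D HBV cells, induced by doxycycline removal, exposed 3 days to 4-fold serial dilutions.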

The mark [1] stands for this setting: Hepatitis B virus, HepG2.117, 72 h, read-out: EC50.

Where two headings read alike, the source gives them in different places.

On to `CC1Cn2c(c(C(=O)NCc3ccccc3-c3ncccn3)n(-c3ccc(OC4CC4)cc3)c2=O)CN1C(=O)c1ccc(Br)c(Cl)c1` (single isomer, unassigned) [Compound 3a, (6S*)-7-(4-bromo-3-chloro-benzoyl)-2-[4-(cyclopropoxy)phenyl]-6-methyl-3-oxo-N-[(2-pyrimidin-2-ylphenyl)methyl]-6,8-dihydro-5H-imidazo[1,5-a]pyrazine-1-carboxamide], for which, under setting [1], the EC50 was < 50 nM.
With `CC1Cn2c(c(C(=O)NCc3ccccc3-c3ncccn3)n(-c3ccc(OC4CC4)cc3)c2=O)CN1C(=O)c1ccc(Br)c(Cl)c1` (single isomer, unassigned) [Compound 3b, (6R*)-7-(4-bromo-3-chloro-benzoyl)-2-[4-(cyclopropoxy)phenyl]-6-methyl-3-oxo-N-[(2-pyrimidin-2-ylphenyl)methyl]-6,8-dihydro-5H-imidazo[1,5-a]pyrazine-1-carboxamide], the concentration giving a half-maximal response (EC50) (read-out: EC50) was 50 to 500 nM.
For the compound `CC1Cn2c(c(C(=O)NCc3ccccc3-c3ccncn3)n(-c3ccc(-n4cccn4)cc3)c2=O)CN1C(=O)c1ccc(Br)c(Cl)c1` (single isomer, unassigned) [Compound 4a, 7-(4-bromo-3-chloro-benzoyl)-6-methyl-3-oxo-2-(4-pyrazol-1-ylphenyl)-N-[(2-pyrimidin-4-ylphenyl)methyl]-6,8-dihydro-5H-imidazo[1,5-a]pyrazine-1-carboxamide], the EC50 under setting [1] was 50 to 500 nM.
On to `CC1Cn2c(c(C(=O)NCc3ccccc3-c3ccncn3)n(-c3ccc(-n4cccn4)cc3)c2=O)CN1C(=O)c1ccc(Br)c(Cl)c1` (single isomer, unassigned) [Compound 4b, 7-(4-bromo-3-chloro-benzoyl)-6-methyl-3-oxo-2-(4-pyrazol-1-ylphenyl)-N-[(2-pyrimidin-4-ylphenyl)methyl]-6,8-dihydro-5H-imidazo[1,5-a]pyrazine-1-carboxamide], for which the EC50 (listed as 4h) is < 50 nM.
For `Cc1nnc(-c2ccccc2CNC(=O)c2c3n(c(=O)n2-c2ccc(OC4CC4)cc2)CC(C)N(C(=O)c2ccc(Br)c(C#N)c2)C3)o1` (single isomer, unassigned) [Compound 5a, (6S*)-7-(4-bromo-3-cyano-benzoyl)-2-[4-(cyclopropoxy)phenyl]-6-methyl-N-[[2-(5-methyl-1,3,4-oxadiazol-2-yl)phenyl]methyl]-3-oxo-6,8-dihydro-5H-imidazo[1,5-a]pyrazine-1-carboxamide], the EC50 under setting [1] is 500 to 5000 nM.
Still for that read-out and setting: as for `Cc1cnn(-c2ccccc2CNC(=O)c2c3n(c(=O)n2-c2ccc(OC4CC4)cc2)CC(C)N(C(=O)c2ccc(Br)c(Cl)c2)C3)c1` (single isomer, unassigned) [Compound 6a, 7-(4-bromo-3-chloro-benzoyl)-2-[4-(cyclopropoxy)phenyl]-6-methyl-N-[[2-(4-methylpyrazol-1-yl)phenyl]methyl]-3-oxo-6,8-dihydro-5H-imidazo[1,5-a]pyrazine-1-carboxamide], the figure is 50 to 500 nM.
As to `Cc1cnn(-c2ccccc2CNC(=O)c2c3n(c(=O)n2-c2ccc(OC4CC4)cc2)CC(C)N(C(=O)c2ccc(Br)c(Cl)c2)C3)c1` (single isomer, unassigned) [Compound 6b, 7-(4-bromo-3-chloro-benzoyl)-2-[4-(cyclopropoxy)phenyl]-6-methyl-N-[[2-(4-methylpyrazol-1-yl)phenyl]methyl]-3-oxo-6,8-dihydro-5H-imidazo[1,5-a]pyrazine-1-carboxamide], where the note is “read-out: EC50”, the EC50 is < 50 nM.
With `CC1Cn2c(c(C(=O)NCc3ccccc3-c3cccnn3)n(-c3ccc(OC4CC4)cc3)c2=O)CN1C(=O)c1ccc(Br)c(Cl)c1` (single isomer, unassigned) [Compound 7a, 7-(4-bromo-3-chloro-benzoyl)-2-[4-(cyclopropoxy)phenyl]-6-methyl-3-oxo-N-[(2-pyridazin-3-ylphenyl)methyl]-6,8-dihydro-5H-imidazo[1,5-a]pyrazine-1-carboxamide], under setting [1], the EC50 fell in the range of 50 to 500 nM.
Turning to `CC1Cn2c(c(C(=O)NCc3ccccc3-c3cccnn3)n(-c3ccc(OC4CC4)cc3)c2=O)CN1C(=O)c1ccc(Br)c(Cl)c1` (single isomer, unassigned) [Compound 7b, 7-(4-bromo-3-chloro-benzoyl)-2-[4-(cyclopropoxy)phenyl]-6-methyl-3-oxo-N-[(2-pyridazin-3-ylphenyl)methyl]-6,8-dihydro-5H-imidazo[1,5-a]pyrazine-1-carboxamide], the EC50 (read-out: EC50) is < 50 nM.
As for `CC1Cn2c(c(C(=O)NCc3ccccc3-c3cc(N)ncn3)n(-c3ccc(OC4CC4)cc3)c2=O)CN1C(=O)c1ccc(Br)c(Cl)c1` (single isomer, unassigned) [Compound 8a, N-[[2-(6-aminopyrimidin-4-yl)phenyl]methyl]-7-(4-bromo-3-chloro-benzoyl)-2-[4-(cyclopropoxy)phenyl]-6-methyl-3-oxo-6,8-dihydro-5H-imidazo[1,5-a]pyrazine-1-carboxamide], under setting [1], the EC50 was in the range of 50 to 500 nM.
As to `CC1Cn2c(c(C(=O)NCc3ccccc3-c3cc(N)ncn3)n(-c3ccc(OC4CC4)cc3)c2=O)CN1C(=O)c1ccc(Br)c(Cl)c1` (single isomer, unassigned) [Compound 8b, N-[[2-(6-aminopyrimidin-4-yl)phenyl]methyl]-7-(4-bromo-3-chloro-benzoyl)-2-[4-(cyclopropoxy)phenyl]-6-methyl-3-oxo-6,8-dihydro-5H-imidazo[1,5-a]pyrazine-1-carboxamide], the EC50 (read-out: EC50) was < 50 nM.
As for `CC1Cn2c(c(C(=O)NCc3ccccc3-c3ccncn3)n(-c3ccc(OC4CC4)cc3)c2=O)CN1C(=O)c1ccc(Br)c(Cl)c1` (single isomer, unassigned) [Compound 9a, 7-(4-bromo-3-chloro-benzoyl)-2-[4-(cyclopropoxy)phenyl]-6-methyl-3-oxo-N-[(2-pyrimidin-4-ylphenyl)methyl]-6,8-dihydro-5H-imidazo[1,5-a]pyrazine-1-carboxamide], under setting [1], the EC50 lay in the range of 50 to 500 nM.
For the compound `CC1Cn2c(c(C(=O)NCc3ccccc3-c3ccncn3)n(-c3ccc(OC4CC4)cc3)c2=O)CN1C(=O)c1ccc(Br)c(Cl)c1` (single isomer, unassigned) [Compound 9b, 7-(4-bromo-3-chloro-benzoyl)-2-[4-(cyclopropoxy)phenyl]-6-methyl-3-oxo-N-[(2-pyrimidin-4-ylphenyl)methyl]-6,8-dihydro-5H-imidazo[1,5-a]pyrazine-1-carboxamide], the EC50 (read-out: EC50) was < 50 nM.
With `CC1Cn2c(c(C(=O)NCc3ccccc3-c3ccc(N)nn3)n(-c3ccc(OC4CC4)cc3)c2=O)CN1C(=O)c1ccc(Br)c(Cl)c1` (single isomer, unassigned) [Compound 10a, N-[[2-(6-aminopyridazin-3-yl)phenyl]methyl]-7-(4-bromo-3-chloro-benzoyl)-2-[4-(cyclopropoxy)phenyl]-6-methyl-3-oxo-6,8-dihydro-5H-imidazo[1,5-a]pyrazine-1-carboxamide], the EC50 (read-out: EC50) lay in the range of 500 to 5000 nM.
As to `CC1Cn2c(c(C(=O)NCc3ccccc3-c3ccc(N)nn3)n(-c3ccc(OC4CC4)cc3)c2=O)CN1C(=O)c1ccc(Br)c(Cl)c1` (single isomer, unassigned) [Compound 10b, N-[[2-(6-aminopyridazin-3-yl)phenyl]methyl]-7-(4-bromo-3-chloro-benzoyl)-2-[4-(cyclopropoxy)phenyl]-6-methyl-3-oxo-6,8-dihydro-5H-imidazo[1,5-a]pyrazine-1-carboxamide], the EC50 (read-out: EC50) lay in the range of 50 to 500 nM.
